Molecular target: T1, human adenosine A2b receptor (Homo sapiens, UniProt P29275)
T1 construct: expressed in transfected cells; host or cells: CHO (Chinese Hamster Ovary) cells co-transfected with the reporter plasmid pCRE-LUCI
T1 sequence (P29275 1-332): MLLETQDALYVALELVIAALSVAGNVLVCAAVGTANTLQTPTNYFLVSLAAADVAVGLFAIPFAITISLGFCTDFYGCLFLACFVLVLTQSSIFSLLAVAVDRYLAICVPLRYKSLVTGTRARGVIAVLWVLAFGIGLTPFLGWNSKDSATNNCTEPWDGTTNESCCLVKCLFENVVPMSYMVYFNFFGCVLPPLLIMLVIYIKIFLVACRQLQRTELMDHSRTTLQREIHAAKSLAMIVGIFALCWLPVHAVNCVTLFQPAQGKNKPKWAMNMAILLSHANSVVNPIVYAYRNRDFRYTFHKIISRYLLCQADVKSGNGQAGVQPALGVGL
Experiment: Adenosine A2b receptor reporter gene assay (luciferase, CHO-A2b cells, NECA agonist)
Type: cell-based
Settings: CHO cells with pCRE-LUCI and human A2b receptor; shift of NECA concentration-response curve; antagonist at 100 nM or 1 μM; KB=[antagonist]/(concentration ratio−1)
Method: Adenosine A2b Receptor Reporter Gene Assay a) Culturing of Chinese Hamster Ovary (CHO) A2b Cell Line
CHO cells transfected with a Luciferase-expressing reporter plasmid (pCRE-LUCI) and with a plasmid carrying the human adenosine A2b receptor structural gene (pA2bRCV) are routinely cultured in Dulbecco's Modified Eagle Medium (DMEM)—supplemented with 10% v/v fetal calf serum (FCS), 2 mM L-glutamine, 0.4 mg/ml L-proline, 1 nM sodium selenite, 0.5 mg/ml Hygromycin B and 1 mg/ml Geneticin—at 37° C., 5% CO2 and 100% humidity. The cells are left to grow to confluence for 4-5 days. The cells obtained are passaged using trypsin/EDTA and split at a ratio of 1 in 5. […]
b) Preparation of cells for assay […]
5′-N-ethylcarboxamidoadenosine (NECA), an adenosine A2b agonist, is prepared as a […] solution in DMSO and then diluted to 100 μM with Assay Buffer. […] 100 μl of Steady-Glo, a Luciferase assay substrate from Promega, is added to all wells to lyse the cells and generate luminescence in proportion to the amount of Lucifrease produced. The plates are left for a minimum of 5 minutes before being read on the luminescence program of a Topcount NXT microplate scintillation counter (ex Packard). […]

SMILES | Kb
N#Cc1ccc(NC(=O)c2cnn(-c3cccc(F)c3)c2-c2ccncc2)cc1 [Example 4, 1-(3-Fluoro-phenyl)-5-pyridin-4-yl-1H-pyrazole4-carboxylic acid (4-cyano-phenyl)-amide] | 139 nM
O=C(Nc1cccnc1)c1cc(-c2ccncc2)n(-c2cccc(F)c2)n1 [Example 33, 1-(3-Fluoro-phenyl)-5-pyridin-4-yl-1H-pyrazole-3-carboxylic acid pyridin-3-ylamide] | 188 nM

Source: patent US20070225335A1, “Pyrazole Derivatives for Treating Condit Ions Mediated by Activation of the Adeno Sine A2B or A3 Receptor” (priority 2004, published 2007)
